Source: article PMC11212140, “Molecular Bidents with Two Electrophilic Warheads as a New Pharmacological Modality” (ACS Central Science, 2024)
Where two headings read alike, the source gives them in different places.

Tests used:
EGFR = tested on: T1, EGFR; assay: Cellular target engagement assays (competitive pulldown); assay type: cell-based; conditions: 1 μM probe
T1 construct: expressed in transfected cells; host or cells: Ba/F3 (murine pro-B cells transduced with an EGFR mutant expression vector)
Experimental: Figure 4 ZNL-0056 covalently engages Cys775 and Cys797 in EGFR Ba/F3 cells. (A) Carton of competition EGFR pulldown strategy to test covalent EGFR engagement in cells. (B) Competitive pulldown assay in EGFR^L858R Ba/F3 cells treated with ZNL-0056 at the indicated concentrations for 6 h. Cell lysates were incubated with bio-osimertinib. (C) Competitive pulldown assay in EGFR^L858R Ba/F3 cells treated with ZNL-0056 at the indicated concentrations for 6 h. Cell lysates were incubated with bio-ZNL-0013, which competes for the binding pocket of the target kinase. (D) Competitive pulldown assay in EGFR^L858R/C797S Ba/F3 cells treated with ZNL-0056 at the indicated concentrations for 6 h. Cell lysates were incubated with bio-ZNL-0013, which competes for the binding pocket of the target kinase. Western blotting showing the pulldown (PD) or input (total lysate) of EGFR. […]
(§1) treatment. Cell viability was determined by using CellTiter-Glo (Promega #G7571) according to the manufacturer’s instructions, measuring luminescence using an Envision plate-reader (PerkinElmer Inc.). […]
(§2) After 6 hours treatment, cells were pelleted, washed with PBS once and lysed with IP lysis buffer (25mMTris-HCl pH 7.4, 150mM NaCl, 1 mM EDTA, 1% NP-40 and 5% glycerol) (Thermo Fisher Scientific, Cat#87788) containing protease/phosphatase inhibitor cocktail (Roche). The protein concentrations were measured by BCA analysis (Pierce). […]

p-JNK1/2 = assay: Immunoblot of MKK7-JNK pathway in MDA-MB-231 cells; assay type: cell-based; conditions: MDA-MB-231, anisomycin, 16 h, up to 10 μM
Experimental: Figure S1. Effects of the indicated compounds on the MKK7 -JNK pathway in MDA -MB-231 cells after 16 h treatment. MDA -MB-231 cells were pretreated with anisomycin for 45 min prior to the addition of the indicated compounds f or 16 h. Representative data from two independent […]
Anisomycin (10 μg/mL) - + + +
(1 picture or pasted object on this page, not shown here) […]
(§3) Immunoblotting and antibodies
Cells were lysed in RIPA buffer (150 mM NaCl, 1.0% IGEPAL® CA-630, 0.5% sodium deoxycholate, 0.1% SDS, 50 mM Tris, pH 8.0) (Sigma, Cat# R0278) with protease inhibitor and phosphatase inhibitor (Roche). The protein concentrations were measured by BCA analysis (Thermo Fisher Scientific, Cat # PI23225). Equal amounts of protein were resolved by 4-12% Bis-Tris gels (Life Technologies), and then transferred to the Immuno-Blot PVDF membrane (BioRad, cat # 1620177). The membranes were blocked by Intercept blocking buffer (LI-COR, cat #927-60001) for 1 hour at room temperature. Proteins were probed with appropriate primary antibodies at 4 ℃ overnight and then with IRDye®800-labeled goat anti-rabbit IgG (LICOR Biosciences, cat […]
or IRDye 680RD goat anti-Mouse IgG (LICOR Biosciences , Cat # 926-68070) secondary antibodies at room temperature for 1 hour. The membranes were detected on Odyssey CLx system.
Antibodies used in this study include anti-following proteins: EGFR (Cell signaling Technology, […]
Akt (Cell signaling Technology, # 9272L, 1:1000), p-Akt (Cell Signaling Technology, #4060S,

MKK7 = molecular target: T2, MKK7 (Homo sapiens, UniProt O14733); assay: MKK7 binding, KdELECT assays (DiscoverX); conditions: for fold loss of potency: vs ZNL-8162
T2 construct: purchased DiscoverX
T2 sequence (O14733 1-419): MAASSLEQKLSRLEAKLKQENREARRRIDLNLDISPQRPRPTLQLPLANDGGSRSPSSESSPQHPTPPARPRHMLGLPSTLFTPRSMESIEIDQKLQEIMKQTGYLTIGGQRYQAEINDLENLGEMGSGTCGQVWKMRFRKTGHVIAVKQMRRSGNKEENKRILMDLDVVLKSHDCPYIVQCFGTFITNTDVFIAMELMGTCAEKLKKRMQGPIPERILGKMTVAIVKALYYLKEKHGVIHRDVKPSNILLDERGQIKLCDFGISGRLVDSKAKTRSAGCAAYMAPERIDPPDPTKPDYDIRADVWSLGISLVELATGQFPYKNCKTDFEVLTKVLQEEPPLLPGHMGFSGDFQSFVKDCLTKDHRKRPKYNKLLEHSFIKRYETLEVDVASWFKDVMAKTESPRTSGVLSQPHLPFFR
Source text: Figure 2 ZNL-8162 is a molecular bident for MKK7. (A) Compound structures for MKK7-targeting molecular bident (ZNL-8162) and its relatives lacking one or both cysteine-reactive groups. (B) Covalent modeling for ZNL-8162 engagement of MKK7(PDB: 6YG3). (C) MS/MS spectrum of ZNL-8162 covalently modifying Cys218 and Cys276 of MKK7. Red and yellow circles indicate ions of type y for sequences marked (1) and (2), respectively. Blue circles indicate ions of b for sequence (1). *, carbamidomethyl cysteine, Δ, oxidized methionine. (D) MKK7 binding data were obtained from KdELECT assays (DiscoverX). Data are presented as mean ± s.d. of n = 2 biologically independent samples.
Table S2. […]

EGFR^L858R Ba/F3 cells = assay: Antiproliferation assay (CellTiter-Glo); assay type: cell-based; conditions: vs ZNL-0056 and ZNL-0091
Experimental: (§4) Figure S6 Dose-response curves for the indicated compounds in EGFRL858R, EGFRL858R/C797S, and EGFRL858R/C775S Ba/F3 cells following 72 h of treatment. Cell viability was assessed with CellTiter-Glo.
(§5) Data are presented as the mean ± SEM (n = 4). Representative data from three independent experiments
(§6) (1 picture or pasted object on this page, not shown here)
(§7) For infection of Ba/F3 cells, 2.5 mL of viral supernatant and 8 μg/mL polybrene was added to 2.5 million cells per well in six-well plates. The plate was centrifuged at 2500 rpm for 90 minutes at 37 °C for the spin infection. Then, virus-containing medium was removed 48 hours later and successfully infected cells were selected with the addition of 1 μg/mL puromycin to the medium.
(§8) After 3 days, cells were transferred into the fresh medium without IL-3 and puromycin. IL-3-independent transformed cells were maintained in RPMI medium 1640 supplemented with 10%
(§9) FBS. Expression of EGFR was examined by Western blot.
as §3
(§10) Cells were lysed in RIPA buffer (150 mM NaCl, 1.0% IGEPAL® CA-630, 0.5% sodium deoxycholate, 0.1% SDS, 50 mM Tris, pH 8.0) (Sigma, Cat# R0278) with protease inhibitor and phosphatase inhibitor (Roche). The protein concentrations were measured by BCA analysis (Thermo Fisher Scientific, Cat # PI23225). […]
(§11) or IRDye 680RD goat anti-Mouse IgG (LICOR Biosciences , Cat # 926-68070) secondary antibodies at room temperature for 1 hour. The membranes were detected on Odyssey CLx system. […]
as §1, §2

[1] = tested on: EGFR^L858R/C775S Ba/F3 cells; assay: Antiproliferation assay (CellTiter-Glo); assay type: cell-based; conditions: vs EGFR^L858R Ba/F3
Experimental: as §4, §5, §6, §7, §8, §9, §3, §10, §11, §1, §2

[2] = Figure 2D, read-out: IC50 against MKK7

| IC50 (MKK7; [2]) [nM] | fold loss of potency (MKK7) [fold] | Structure (SMILES) | inhibition of p-JNK1/2 (p-JNK1/2) | also measured |
| --- | --- | --- | --- | --- |
| 313 | ~3 | C=CC(=O)N1CCC(Nc2ncc(Cl)c(Nc3ccccc3NC(=O)CC)n2)C1 (centres unmarked) [ZNL-8165] | less potency |  |
| > 10000 |  | CCC(=O)Nc1ccccc1Nc1nc(NC2CCN(C(=O)CC)C2)ncc1Cl (centres unmarked) [ZNL-8166] | did not exhibit any inhibition |  |

The next lines start with the molecule.

| Structure (SMILES) | IC50 (MKK7; [2]) [nM] | fold loss of potency (MKK7) [fold] | inhibition of p-JNK1/2 (p-JNK1/2) | also measured |
| --- | --- | --- | --- | --- |
| C=CC(=O)Nc1cc(C(=O)Nc2nc3cccc(C)c3n2[C@@H]2CCCCN(C(=O)CCOCCOCCOCCOCCNC(=O)CCCC[C@@H]3SC[C@@H]4NC(=O)N[C@@H]43)C2)cs1 [bio-ZNL-0013] |  |  |  | enrichment of EGFR from cell lysate under denaturing conditions (EGFR): significant enrichment |
| C=CC(=O)Nc1ccccc1Nc1nc(NC2CCN(C(=O)CC)C2)ncc1Cl (centres unmarked) [ZNL-8163] | 437 | ~3 | less potency |  |
| C=CC(=O)Nc1cc(C(=O)Nc2nc3cccc(C)c3n2[C@@H]2CCCCN(C(C)=O)C2)cs1 [ZNL-0013] |  |  |  | cell growth inhibition activity, fold weaker (EGFR^L858R Ba/F3 cells): about 5 fold; potency loss (shift) in the EGFR^L858R/C775S mutant [1]: 20 fold |
| C=CC(=O)Nc1ccccc1Nc1nc(NC2CCN(C(=O)C=C)C2)ncc1Cl (centres unmarked) [ZNL-8162] | 133 |  | strong inhibition | IC50 (MKK7; from ZNL-8163 and ZNL-8165 IC50 data, read-out: IC50 estimated from single warhead compounds assuming independent contributions from both covalent bonds): ~182 nM |
